Results on three molecules are retold here after US8044088B2, “1-acetic acid-indole derivatives with PGD2 antagonist activity” (Oxagen Limited, priority 2005, dated 2011).

In test [1] the target is T1, CRTH2 Receptor (Homo sapiens, UniProt Q9Y5Y4).
T1 construct: expressed in transfected cells; host or cells: Chinese Hamster Ovary (CHO) cells, membranes
T1 sequence (Q9Y5Y4 1-395): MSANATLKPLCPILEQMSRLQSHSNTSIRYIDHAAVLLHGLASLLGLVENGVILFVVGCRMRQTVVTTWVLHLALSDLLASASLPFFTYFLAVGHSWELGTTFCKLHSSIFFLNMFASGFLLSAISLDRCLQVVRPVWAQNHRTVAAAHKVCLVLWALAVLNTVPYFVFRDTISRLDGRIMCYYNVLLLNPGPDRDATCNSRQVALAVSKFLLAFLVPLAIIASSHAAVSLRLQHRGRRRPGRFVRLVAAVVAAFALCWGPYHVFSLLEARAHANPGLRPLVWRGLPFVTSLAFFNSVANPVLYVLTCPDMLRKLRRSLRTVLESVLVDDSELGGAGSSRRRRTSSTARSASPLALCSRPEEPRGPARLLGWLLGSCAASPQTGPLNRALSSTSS
Put plainly: Radioligand binding assay, [3H]PGD2, CHO/CRTH2 cell membranes. The following applies: [3H]PGD2 displacement, membranes of CHO cells transfected with CRTH2. On the procedure: (§1) Chinese Hamster Ovary cells were transfected with CRTH2 or DP receptors (CHO/CRTH2 and CHO/DP) and were maintained in culture in a humidified atmosphere at 37° C. (5% CO2) in Minimum Essential Medium (MEM) supplemented with 10% foetal bovine serum, 2 mM glutamine, and 1 mg ml^−1 active G418. The cells were passaged every 2-3 days. For radioligand binding assay, cells were prepared in triple-layer flasks or in 175 cm^2 square flasks (for membrane preparation). For calcium mobilisation assay, cells were grown in a 96 well plate 24h prior to the assay at a density of 80,000 cells per well.
(§2) Membranes were prepared either from CHO/CRTH2 and CHO/DP cells, or from platelets (as a source of TP receptors). CHO cells grown to confluency were washed with PBS and detached using a Versene solution (15 ml per flask). When the cells were grown in 175 cm^2 square flask, they were collected by scrapping in PBS. The cell suspensions were centrifuged (1,700 rpm, 10 min, 4° C.) and resuspended in 15 ml of buffer (1×HBSS, supplemented with 10 mM HEPES, pH 7.3). Cell suspensions were then homogenised using an Ultra Turrax at setting 4-6 for 20 s. The homogenate was centrifuged at 1,700 rpm for 10 min and the supernatant was collected and centrifuged at 20,000 rpm for 1 h at 4° C. The resulting pellet was resuspended in buffer and stored at −80° C. in aliquots of 200-500 μl. The protein concentration was determined by the method of Bradford (1976), using bovine serum albumin as standard. The platelets were washed by centrifugation at 600×g for 10 min and resuspended in ice-cold assay buffer (10 mM Tris-HCl, pH 7.4, 5 mM Glucose, 120 mM NaCl, 10 μM indomethacin) and directly centrifuged at 20,000 rpm for 30 min at 4° C. […]
(§3) [^3H]PGD2 (160 Ci/mmol) binding experiments were performed on membranes prepared as described above. […] The Unifilter plates were dried at room temperature for at least 1 h and the radioactivity retained on the filters was determined on a Beta Trilux counter (PerkinElmer Life Sciences), following addition of 40 μl of Optiphase Hi-Safe 3 (Wallac) liquid scintillation. […]

Test [2] concerns the target T2, DP Receptor (Homo sapiens, UniProt Q13258).
T2 construct: expressed in transfected cells; host or cells: Chinese Hamster Ovary (CHO) cells, membranes
T2 sequence (Q13258 1-359): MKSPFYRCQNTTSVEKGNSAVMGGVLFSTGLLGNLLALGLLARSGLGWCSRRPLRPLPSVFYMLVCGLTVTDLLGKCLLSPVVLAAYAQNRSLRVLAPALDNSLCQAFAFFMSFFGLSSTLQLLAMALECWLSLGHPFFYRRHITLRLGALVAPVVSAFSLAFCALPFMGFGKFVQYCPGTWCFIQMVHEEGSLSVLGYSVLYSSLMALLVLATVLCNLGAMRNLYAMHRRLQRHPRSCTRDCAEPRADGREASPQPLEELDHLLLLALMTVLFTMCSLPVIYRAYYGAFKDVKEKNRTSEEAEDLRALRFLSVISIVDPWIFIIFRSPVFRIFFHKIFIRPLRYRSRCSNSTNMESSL
Put plainly: Radioligand binding assay, [3H]PGD2, CHO/DP cell membranes. To be noted: [3H]PGD2 displacement, membranes of CHO cells transfected with DP. How it is done: as §1, §2, §3

In the case of `Cc1ccc(S(=O)(=O)n2cccc2Cc2c(C)n(CC(=O)O)c3ccc(F)cc23)cc1` [Compound 2, {5-Fluoro-2-methyl-3-[1-(toluene-4-sulfonyl)-1H-pyrrol-2-ylmethyl]-indol-1-yl}-acetic acid], the Ki (as a rule, the equilibrium dissociation constant of an inhibitor or competing ligand from its target) in test [1] was determined as 0.2 nM; in test [2], 1800 nM.
The like results for `Cc1c(Cc2cccn2S(=O)(=O)c2ccccc2)c2cc(F)ccc2n1CC(=O)O` [Compound 1, [3-(1-Benzenesulfonyl-1H-pyrrol-2-ylmethyl)-5-fluoro-2-methyl-indol-1-yl]-acetic acid] were, in that order, 1 nM and 9200 nM.
As for `Cc1c(Cc2cccn2S(=O)(=O)c2ccc(F)cc2F)c2cc(F)ccc2n1CC(=O)O` [Compound 3, {3-[1-(2,4-Difluoro-benzenesulfonyl)-1H-pyrrol-2-ylmethyl]-5-fluoro-2-methyl-indol-1-yl}-acetic acid], the Ki worked out at 2 nM in test [1] and 8000 nM in test [2].
